Measured values reported in ChEMBL document CHEMBL4312017, “Synthesis and discovery of new compounds bearing coumarin scaffold for the treatment of pulmonary fibrosis” (Eur J Med Chem, 2020).
Active and inactive are the calls of the source. The calls are words filed in the database; no cut-off is given here.

What was measured:
Mus musculus [1] = test: Antifibrotic activity against BLM-induced C57BL/6 mouse pulmonary fibrosis model assessed as decrease in destruction alveolar structure at 100 mg/kg, po administered for 28 days and measured on day 14 and 28 by HE staining based fluorescence microscopy; assay type: functional, organism-based
NRK-49F [2] = test: Inhibition of TGF-beta-induced collagen accumulation in rat NRK-49F cells incubated for 2 days by PSR staining based microscopic analysis; assay type: functional, cell-based; settings: for IC50: 48 h
[3] = Cmax in Sprague-Dawley rat at 10 mg/kg, po measured upto 24 hrs; assay type: ADME, organism-based; set-up: dose 10 mg/kg, route oral; settings: in vivo
[4] = biological target: T1, Transforming growth factor beta-1 proprotein/Smad3 (Rattus norvegicus) (UniProt P84025+P17246); test: Inhibition of TGFbeta/Smad3 pathway in rat NRK-49F cells assessed as reduction in TGF-beta1-induced COL1A1 expression in at 20 and 40 uM incubated for 24 hrs by Western blot analysis; assay type: cell-based
Mus musculus [5] = test: Antifibrotic activity against C57BL/6 mouse pulmonary fibrosis model assessed as reduction in bleomycin-iduced hydroxyproline level at 100 mg/kg, po administered for 28 days and measured on day 14 and 28 by spectrophotometry; assay type: functional, organism-based
Mus musculus [6] = test: Antifibrotic activity against BLM-induced C57BL/6 mouse pulmonary fibrosis model assessed as increase in time for reduction of alveoli at 100 mg/kg, po administered for 28 days and measured on day 14 and 28 by HE staining based fluorescence microscopy; assay type: functional, organism-based
Mus musculus [7] = test: Antifibrotic activity against BLM-induced C57BL/6 mouse pulmonary fibrosis model assessed as reduction in neutrophils in BALF at 50 mg/kg, po administered for 28 days and measured on day 28; assay type: functional, organism-based
[8] = Oral bioavailability in Sprague-Dawley rat 10 mg/kg measured upto 24 hrs; assay type: ADME, organism-based; settings: in vivo
Mus musculus [9] = test: Antifibrotic activity against BLM-induced C57BL/6 mouse pulmonary fibrosis model assessed as decrease in bronchioles inflammatory cell infiltration at 50 mg/kg, po administered for 28 days and measured on day 14 and 28 by HE staining based fluorescence microscopy; assay type: functional, organism-based
Mus musculus [10] = test: Antifibrotic activity against BLM-induced C57BL/6 mouse pulmonary fibrosis model assessed as decrease in bronchiolar epithelial cell shedding at 50 mg/kg, po administered for 28 days and measured on day 14 and 28 by HE staining based fluorescence microscopy; assay type: functional, organism-based
[11] = Cmax in Sprague-Dawley rat at 5 mg/kg, iv measured upto 24 hrs; assay type: ADME, organism-based; set-up: dose 5 mg/kg, route intravenous; settings: in vivo
NIH3T3 = test: Inhibition of TGF-beta-induced […] migration in mouse NIH/3T3 cells at 1 uM incubated for 24 hrs by Transwell assay; assay type: functional, cell-based
[12] = Half life in Sprague-Dawley rat at 5 mg/kg, iv measured upto 24 hrs; assay type: ADME, organism-based; settings: in vivo
Mus musculus [13] = test: Antifibrotic activity against BLM-induced C57BL/6 mouse pulmonary fibrosis model assessed as decrease in destruction alveolar structure at 50 mg/kg, po administered for 28 days and measured on day 14 and 28 by HE staining based fluorescence microscopy; assay type: functional, organism-based
Mus musculus [14] = test: Antifibrotic activity against C57BL/6 mouse pulmonary fibrosis model assessed as reduction in bleomycin-iduced hydroxyproline level at 50 mg/kg, po administered for 28 days and measured on day 14 and 28 by spectrophotometry; assay type: functional, organism-based
[15] = AUC (0 to t) in Sprague-Dawley rat 10 mg/kg, po measured upto 24 hrs; assay type: ADME, organism-based; set-up: time < 24 hr, dose 10 mg/kg, route oral; settings: in vivo
Mus musculus [16] = test: Antifibrotic activity against BLM-induced C57BL/6 mouse pulmonary fibrosis model assessed as reduction in total white blood cells in BALF at 50 mg/kg, po administered for 28 days and measured on day 28; assay type: functional, organism-based
[17] = Clearance in Sprague-Dawley rat 10 mg/kg, po measured upto 24 hrs; assay type: ADME, organism-based; settings: in vivo
Mus musculus [18] = test: Antifibrotic activity against BLM-induced C57BL/6 mouse pulmonary fibrosis model assessed as decrease in perivascular inflammatory cell infiltration at 50 mg/kg, po administered for 28 days and measured on day 14 and 28 by HE staining based fluorescence microscopy; assay type: functional, organism-based
[19] = Tmax in Sprague-Dawley rat at 5 mg/kg, iv measured upto 24 hrs; assay type: ADME, organism-based; settings: in vivo
Mus musculus [20] = test: Antifibrotic activity against BLM-induced C57BL/6 mouse pulmonary fibrosis model assessed as reduction in total white blood cells in BALF at 100 mg/kg, po administered for 28 days and measured on day 28; assay type: functional, organism-based
Mus musculus [21] = test: Antifibrotic activity against BLM-induced C57BL/6 mouse pulmonary fibrosis model assessed as decrease in bronchioles inflammatory cell infiltration at 100 mg/kg, po administered for 28 days and measured on day 14 and 28 by HE staining based fluorescence microscopy; assay type: functional, organism-based
[22] = Cytotoxicity against rat NRK-49F cells assessed as cell viability at 10 uM incubated for 72 hrs by MTT assay; assay type: cell-based; settings: read-out: Activity
Mus musculus [23] = test: Antifibrotic activity against BLM-induced C57BL/6 mouse pulmonary fibrosis model assessed as reduction in neutrophils in BALF at 100 mg/kg, po administered for 28 days and measured on day 28; assay type: functional, organism-based
Mus musculus [24] = test: Antifibrotic activity against BLM-induced C57BL/6 mouse pulmonary fibrosis model assessed as reduction in lymphocytes in BALF at 100 mg/kg, po administered for 28 days and measured on day 28; assay type: functional, organism-based
NRK-49F [25] = test: Inhibition of TGF-beta-induced collagen accumulation in rat NRK-49F cells at 10 uM incubated for 2 days by PSR staining based microscopic analysis relative to control; assay type: functional; settings: 48 h
[26] = biological target: T1, Transforming growth factor beta-1 proprotein/Smad3 (Rattus norvegicus); test: Inhibition of TGFbeta/Smad3 pathway in rat NRK-49F cells assessed as reduction in TGF-beta1-induced alpha-SMA expression in at 20 and 40 uM incubated for 24 hrs by Western blot analysis; assay type: cell-based
[27] = biological target: T1, Transforming growth factor beta-1 proprotein/Smad3 (Rattus norvegicus); test: Inhibition of TGFbeta/Smad3 pathway in rat NRK-49F cells assessed as reduction in TGF-beta1-induced Smad3 phosphorylation at 20 and 40 uM incubated for 24 hrs by Western blot analysis; assay type: cell-based
Mus musculus [28] = test: Antifibrotic activity against BLM-induced C57BL/6 mouse pulmonary fibrosis model assessed as decrease in bronchiolar epithelial cell shedding at 100 mg/kg, po administered for 28 days and measured on day 14 and 28 by HE staining based fluorescence microscopy; assay type: functional, organism-based
Mus musculus [29] = test: Antifibrotic activity against BLM-induced C57BL/6 mouse pulmonary fibrosis model assessed as reduction in lymphocytes in BALF at 50 mg/kg, po administered for 28 days and measured on day 28; assay type: functional, organism-based
Mus musculus [30] = test: Antifibrotic activity against BLM-induced C57BL/6 mouse pulmonary fibrosis model assessed as decrease in bronchial epithelial vacuolar degeneration at 50 mg/kg, po administered for 28 days and measured on day 14 and 28 by HE staining based fluorescence microscopy; assay type: functional, organism-based
Mus musculus [31] = test: Antifibrotic activity against BLM-induced C57BL/6 mouse pulmonary fibrosis model assessed as decrease in bronchial epithelial vacuolar degeneration at 100 mg/kg, po administered for 28 days and measured on day 14 and 28 by HE staining based fluorescence microscopy; assay type: functional, organism-based
[32] = Tmax in Sprague-Dawley rat 10 mg/kg, po measured upto 24 hrs; assay type: ADME, organism-based; settings: in vivo
Mus musculus [33] = test: Antifibrotic activity against BLM-induced C57BL/6 mouse pulmonary fibrosis model assessed as decrease in perivascular inflammatory cell infiltration at 100 mg/kg, po administered for 28 days and measured on day 14 and 28 by HE staining based fluorescence microscopy; assay type: functional, organism-based
[34] = Toxicity in BLM-induced C57BL/6 mouse pulmonary fibrosis model assessed as survival rate at 50 and 100 mg/kg, po observed for 28 days; assay type: organism-based; settings: in vivo
[35] = Half life in Sprague-Dawley rat 10 mg/kg, po measured upto 24 hrs; assay type: ADME, organism-based; settings: in vivo
[36] = AUC (0 to t) in Sprague-Dawley rat at 5 mg/kg, iv measured upto 24 hrs; assay type: ADME, organism-based; set-up: dose 5 mg/kg, time < 24 hr, route intravenous; settings: in vivo
Mus musculus [37] = test: Antifibrotic activity against BLM-induced C57BL/6 mouse pulmonary fibrosis model assessed as increase in time for reduction of alveoli at 50 mg/kg, po administered for 28 days and measured on day 14 and 28 by HE staining based fluorescence microscopy; assay type: functional, organism-based

T1 sequence (P17246 whole entry, looked up): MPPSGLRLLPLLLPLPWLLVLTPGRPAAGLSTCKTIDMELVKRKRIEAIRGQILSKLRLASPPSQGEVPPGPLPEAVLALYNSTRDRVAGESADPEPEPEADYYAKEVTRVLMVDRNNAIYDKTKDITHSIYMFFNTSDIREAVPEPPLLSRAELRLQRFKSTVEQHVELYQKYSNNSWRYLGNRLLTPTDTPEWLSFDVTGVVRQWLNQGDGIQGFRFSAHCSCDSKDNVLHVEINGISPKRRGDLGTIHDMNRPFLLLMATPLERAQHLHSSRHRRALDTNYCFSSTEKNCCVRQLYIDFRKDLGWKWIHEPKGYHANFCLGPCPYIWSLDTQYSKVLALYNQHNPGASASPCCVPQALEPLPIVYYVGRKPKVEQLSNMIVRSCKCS
T1 sequence (P84025 whole entry, looked up): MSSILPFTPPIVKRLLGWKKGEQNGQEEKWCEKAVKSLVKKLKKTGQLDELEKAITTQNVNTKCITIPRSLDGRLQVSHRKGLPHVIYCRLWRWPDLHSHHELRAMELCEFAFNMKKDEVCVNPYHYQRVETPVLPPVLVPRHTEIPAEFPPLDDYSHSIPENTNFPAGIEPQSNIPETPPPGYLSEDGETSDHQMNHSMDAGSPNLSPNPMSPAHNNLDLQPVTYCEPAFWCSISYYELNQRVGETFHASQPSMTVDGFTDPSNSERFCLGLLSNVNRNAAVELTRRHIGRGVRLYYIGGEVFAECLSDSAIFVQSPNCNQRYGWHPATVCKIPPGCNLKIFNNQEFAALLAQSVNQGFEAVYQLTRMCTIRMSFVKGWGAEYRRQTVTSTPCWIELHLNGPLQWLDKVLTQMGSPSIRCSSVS

## O=C(CN1CCCCC1)Nc1ccc(Oc2cc(=O)oc3ccccc23)cc1
Mus musculus [1]
  Activity: Active
NRK-49F [2]
  inhibition: Dose-dependent effect
  IC50: 4310 nM
[3]
  Cmax: 74.7 ng/mL
[4]
  inhibition: Active
Mus musculus [5]
  Activity: Active
Mus musculus [6]
  Activity: Active
Mus musculus [7]
  Activity: Active
[8]
  bioavailability: 39.9%
Mus musculus [9]
  Activity: Active
Mus musculus [10]
  Activity: Active
[11]
  Cmax: 316 ng/mL
NIH3T3
  inhibition: Active
[12]
  half-life: 7.42 h
Mus musculus [13]
  Activity: Active
Mus musculus [14]
  Activity: inactive
[15]
  AUC(0-t) at 24 h: 1100 ng·h/mL
Mus musculus [16]
  Activity: Active
[17]
  CL/F: 108 mL/min/kg
Mus musculus [18]
  Activity: Active
[19]
  Tmax: 2.68 h
Mus musculus [20]
  Activity: Active
Mus musculus [21]
  Activity: Active
[22]
  viability at 72 h, 10 µM: 93.6%
Mus musculus [23]
  Activity: Active
Mus musculus [24]
  Activity: Active
NRK-49F [25]
  inhibition at 10 µM: 85.1%
[26]
  inhibition: Active
[27]
  inhibition: Active
Mus musculus [28]
  Activity: Active
Mus musculus [29]
  Activity: Active
Mus musculus [30]
  Activity: Active
Mus musculus [31]
  Activity: Active
[32]
  Tmax: 0.63 h
Mus musculus [33]
  Activity: Active
[34]
  survival at 672 h: 90%
[35]
  half-life: 13.1 h
[36]
  AUC(0-t) at 24 h: 1390 ng·h/mL
Mus musculus [37]
  Activity: Active

## COC(=O)c1ccc2c(c1)NC(=O)/C2=C(\Nc1ccc(N(C)C(=O)CN2CCN(C)CC2)cc1)c1ccccc1 [NINTEDANIB]
NRK-49F [2]
  IC50: 1100 nM
Mus musculus [7]
  Activity: Active
[8]
  bioavailability: 12%
Mus musculus [9]
  Activity: Active
Mus musculus [10]
  Activity: Active
Mus musculus [13]
  Activity: Active
Mus musculus [14]
  Activity: inactive
Mus musculus [16]
  Activity: Active
Mus musculus [18]
  Activity: Active
[22]
  viability at 72 h, 10 µM: 40%
NRK-49F [25]
  inhibition at 10 µM: 95.5%
Mus musculus [29]
  Activity: Active
Mus musculus [30]
  Activity: Active
Mus musculus [37]
  Activity: Active
